The subject of assay [1] is Pseudomonas aeruginosa. Description: Antibacterial activity against Pseudomonas aeruginosa isolate 44 ATCC 27853. It counts as functional.
A further assay has as its system Escherichia coli. Put plainly: Antibacterial activity against Escherichia coli isolate 35 ATCC 25922. It counts as functional.
Assay [2] concerns Pseudomonas aeruginosa. Description: Antibacterial activity against Pseudomonas aeruginosa isolate 839 harboring mexAB-oprM deletion mutant. It counts as functional.
The subject of a further assay is Klebsiella pneumoniae. Description: Antibacterial activity against Klebsiella pneumoniae isolate 21 ATCC 4352. Format: functional.
Assay [3] has as its target T1, UDP-3-O-acyl-N-acetylglucosamine deacetylase (Pseudomonas aeruginosa (strain ATCC 15692 / PAO1 / 1C / PRS 101 / LMG12228), UniProt P47205).
T1 sequence (P47205 whole entry): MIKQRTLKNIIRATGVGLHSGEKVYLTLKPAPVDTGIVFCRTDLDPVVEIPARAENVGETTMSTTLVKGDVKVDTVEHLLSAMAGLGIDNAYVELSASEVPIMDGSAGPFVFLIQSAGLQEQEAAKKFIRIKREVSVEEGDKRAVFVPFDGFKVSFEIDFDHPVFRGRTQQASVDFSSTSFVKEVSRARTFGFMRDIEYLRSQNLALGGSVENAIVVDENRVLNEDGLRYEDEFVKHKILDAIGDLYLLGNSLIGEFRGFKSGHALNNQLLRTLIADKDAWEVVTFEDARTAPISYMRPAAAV
Description: Inhibition of LpxC in Pseudomonas aeruginosa isolate 44 ATCC 27853.

The nature of assay [4]: Inhibition of LpxC in Klebsiella pneumoniae isolate 21 ATCC 4352.
Assay [5] has as its target T2, UDP-3-O-acyl-N-acetylglucosamine deacetylase (Escherichia coli K-12, UniProt P0A725).
T2 sequence (P0A725 whole entry): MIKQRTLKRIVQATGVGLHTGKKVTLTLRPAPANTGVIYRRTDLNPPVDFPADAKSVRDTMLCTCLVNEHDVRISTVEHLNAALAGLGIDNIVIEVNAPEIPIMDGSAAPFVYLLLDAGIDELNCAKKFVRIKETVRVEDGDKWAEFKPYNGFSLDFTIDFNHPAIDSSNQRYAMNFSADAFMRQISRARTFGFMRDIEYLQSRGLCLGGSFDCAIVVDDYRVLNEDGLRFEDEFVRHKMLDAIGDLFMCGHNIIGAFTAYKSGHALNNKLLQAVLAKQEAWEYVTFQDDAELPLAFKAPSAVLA
Put plainly: Inhibition of LpxC in Escherichia coli isolate 35 ATCC 25922. More on the design: species or system Escherichia coli ATCC 25922.

The subject of assay [6] is Pseudomonas aeruginosa. Description: Antibacterial activity against Pseudomonas aeruginosa isolate 847. Format: functional.
Assay [7] deals with T1, UDP-3-O-acyl-N-acetylglucosamine deacetylase. Description: Inhibition of LpxC in Pseudomonas aeruginosa isolate 847.
Another assay deals with Acinetobacter baumannii. Description: Antibacterial activity against Acinetobacter baumannii focus ID 961025. Format: functional.
Assay [8] can be described thus: Inhibition of LpxC in Acinetobacter baumannii focus ID 961025.

The structures appear in SMILES notation. In brackets after ≈: the same amount, converted by molar mass.

For the molecule `C[C@@H](O)[C@H](N[C@H]1CCc2cc(C#Cc3ccc(CN4CC[C@@H](O)C4)cc3)ccc21)C(=O)NO`, the MIC stood at 8 µg/mL (≈ 17.8 µM) against Pseudomonas aeruginosa [1], 2 µg/mL (≈ 4.45 µM) in the assay on Escherichia coli, 1 µg/mL (≈ 2.22 µM) in the assay with Pseudomonas aeruginosa [2] and 0.5 µg/mL (≈ 1.11 µM) in the assay with Klebsiella pneumoniae. Besides, the 50% inhibitory concentration (IC50) in [3] turned out to be 26 nM; in assay [4] it was 38 nM; in [5] it was 51 nM.
For `CNCCOCc1ccc(C#Cc2ccc3c(c2)CC[C@@H]3N[C@H](C(=O)NO)[C@@H](C)O)cc1`, the MIC against Pseudomonas aeruginosa [1] came out at 16 µg/mL (≈ 36.6 µM); against Escherichia coli it was 4 µg/mL (≈ 9.14 µM); in the assay with Pseudomonas aeruginosa [2], 2 µg/mL (≈ 4.57 µM); in the assay on Klebsiella pneumoniae, 0.25 µg/mL (≈ 0.571 µM). Besides, the IC50 worked out at 6 nM in [3], 11 nM in assay [4] and 15 nM in [5].
As for `C[C@@H](O)[C@H](N[C@H]1CCc2cc(C#Cc3ccc(Cn4ccnc4CCO)cc3)ccc21)C(=O)NO`, the MIC turned out to be 4 µg/mL (≈ 8.43 µM) against Pseudomonas aeruginosa [1], 1 µg/mL (≈ 2.11 µM) with Escherichia coli, 4 µg/mL (≈ 8.43 µM) with Pseudomonas aeruginosa [6] and 0.125 µg/mL (≈ 0.263 µM) in the assay with Pseudomonas aeruginosa [2]. In addition, the results for the IC50 in assay [3], in assay [4] and in [5] were 5 nM, 3 nM and 5 nM, respectively.
Turning to `CC(C)(O)[C@H](N[C@H]1CCc2cc(C#Cc3ccc(CN4CCOCC4)cc3)ccc21)C(=O)NO`, the MIC in the assay with Pseudomonas aeruginosa [1] is 32 µg/mL (≈ 69 µM); against Escherichia coli, 0.25 µg/mL (≈ 0.539 µM); with Pseudomonas aeruginosa [2], 0.25 µg/mL (≈ 0.539 µM); with Klebsiella pneumoniae it was under 0.03 µg/mL. The IC50 in [7] was found to be 0.4 nM; in assay [3] it was 3 nM; in assay [5] it was 1 nM.
`C[C@@H](O)[C@H](N[C@H]1CCc2cc(C#Cc3ccc(CN4CCCCC4)cc3)ccc21)C(=O)NO`: the MIC with Pseudomonas aeruginosa [1] amounted to 16 µg/mL (≈ 35.7 µM); against Escherichia coli, 0.5 µg/mL (≈ 1.12 µM); against Pseudomonas aeruginosa [2], 2 µg/mL (≈ 4.47 µM); against Klebsiella pneumoniae, 0.5 µg/mL (≈ 1.12 µM). The concentration for half-maximal inhibition (IC50) in assay [3] was 10 nM; in assay [4] it was 5 nM; in assay [5] it was 10 nM.
For the molecule `Cc1nccn1Cc1ccc(C#Cc2ccc3c(c2)CC[C@@H]3N[C@H](C(=O)NO)[C@@H](C)O)cc1`, the MIC with Pseudomonas aeruginosa [1] stood at 8 µg/mL (≈ 18 µM); in the assay on Escherichia coli it was 0.25 µg/mL (≈ 0.562 µM); in the assay with Pseudomonas aeruginosa [2] it was 0.25 µg/mL (≈ 0.562 µM); in the assay on Klebsiella pneumoniae, 0.06 µg/mL (≈ 0.135 µM). Besides, the IC50 in assay [3] was determined as 4 nM; in [4] it was 2 nM; in [5], 1 nM.
In the case of `CC(C)(N)[C@H](N[C@H]1CCc2cc(C#Cc3ccc(CN4CCOCC4)cc3)ccc21)C(=O)NO`, the MIC is 4 µg/mL (≈ 8.65 µM) in the assay on Pseudomonas aeruginosa [1], 0.5 µg/mL (≈ 1.08 µM) with Escherichia coli, 0.5 µg/mL (≈ 1.08 µM) with Pseudomonas aeruginosa [6] and 0.25 µg/mL (≈ 0.54 µM) with Pseudomonas aeruginosa [2]. In addition, the figures for the IC50 in [7], in assay [3] and in [5] were 1 nM, 6 nM and 2 nM, respectively.
Regarding `COC1CCN(Cc2ccc(C#Cc3ccc4c(c3)CC[C@@H]4N[C@H](C(=O)NO)[C@@H](C)O)cc2)CC1`, the MIC with Pseudomonas aeruginosa [1] came to 8 µg/mL (≈ 16.8 µM); in the assay with Escherichia coli, 0.5 µg/mL (≈ 1.05 µM); against Pseudomonas aeruginosa [2] it was 1 µg/mL (≈ 2.09 µM); in the assay with Klebsiella pneumoniae it was 0.06 µg/mL (≈ 0.126 µM). The IC50 in assay [3] came out at 3 nM; in assay [4], 6 nM; in [5], 5 nM.
For `CC(C)(N)[C@H](NC1COCc2cc(C#Cc3ccc(CN4CCOCC4)cc3)ccc21)C(=O)NO` (stereo not given in full), the MIC in the assay with Pseudomonas aeruginosa [1] stood at 4 µg/mL (≈ 8.36 µM); in the assay with Escherichia coli it was 0.5 µg/mL (≈ 1.04 µM); against Pseudomonas aeruginosa [6], 4 µg/mL (≈ 8.36 µM); with Pseudomonas aeruginosa [2] it was 0.25 µg/mL (≈ 0.522 µM). For the same molecule, the figures for the IC50 in assay [3] and in [5] were 8 nM and 5 nM, respectively.
With `C[C@@H](O)[C@H](N[C@H]1CCc2cc(C#Cc3ccc(CN4CCN(C)CC4)cc3)ccc21)C(=O)NO`, the minimum inhibitory concentration (MIC) in the assay on Pseudomonas aeruginosa [1] was determined as 8 µg/mL (≈ 17.3 µM); against Escherichia coli, 0.25 µg/mL (≈ 0.54 µM); in the assay on Pseudomonas aeruginosa [2], 1 µg/mL (≈ 2.16 µM); with Klebsiella pneumoniae, 0.125 µg/mL (≈ 0.27 µM). In addition, the IC50 was determined as 30 nM in [3], 32 nM in assay [4] and 53 nM in assay [5].
Take `C[C@@H](O)[C@H](N[C@H]1CCc2cc(C#Cc3ccc(CN4CCOCC4)cc3)ccc21)C(=O)NO`: the MIC against Pseudomonas aeruginosa [1] was 8 µg/mL (≈ 17.8 µM); against Escherichia coli it was under 0.125 µg/mL; against Acinetobacter baumannii, 32 µg/mL (≈ 71.2 µM); in the assay on Pseudomonas aeruginosa [6] it was 2 µg/mL (≈ 4.45 µM); in the assay on Pseudomonas aeruginosa [2], 0.25 µg/mL (≈ 0.556 µM); against Klebsiella pneumoniae, under 0.125 µg/mL. Moreover, the IC50 came to 2 nM in [7]; 3 nM in assay [3]; 2 nM in [4]; 2 nM in assay [5]; 70 nM in [8].
As for `C[C@@H](O)[C@H](N[C@H]1CCc2cc(C#Cc3ccc(Cn4ccnc4CO)cc3)ccc21)C(=O)NO`, the MIC in the assay on Pseudomonas aeruginosa [1] was determined as 4 µg/mL (≈ 8.69 µM); against Escherichia coli, 1 µg/mL (≈ 2.17 µM); against Pseudomonas aeruginosa [6], 4 µg/mL (≈ 8.69 µM); in the assay on Pseudomonas aeruginosa [2], 0.5 µg/mL (≈ 1.09 µM). Besides, the IC50 in assay [4] came to 4 nM; in assay [5] it was 6 nM.
Turning to `C[C@@H](O)[C@H](N[C@H]1CCc2cc(C#Cc3ccc(CN4CCN(CCO)CC4)cc3)ccc21)C(=O)NO`, the MIC against Pseudomonas aeruginosa [1] is 4 µg/mL (≈ 8.12 µM); against Escherichia coli it was 2 µg/mL (≈ 4.06 µM); against Pseudomonas aeruginosa [2], 1 µg/mL (≈ 2.03 µM); with Klebsiella pneumoniae it was under 0.125 µg/mL. In addition, the figures for the IC50 in assay [3], in assay [4] and in assay [5] were 14 nM, 21 nM and 20 nM, respectively.
In the case of `CC(C)(N)[C@H](NC1COCc2cc(C#Cc3ccc(Cn4ccnc4CO)cc3)ccc21)C(=O)NO` (stereo not given in full), the MIC worked out at 4 µg/mL (≈ 8.17 µM) against Pseudomonas aeruginosa [1], 4 µg/mL (≈ 8.17 µM) in the assay with Escherichia coli, 16 µg/mL (≈ 32.7 µM) in the assay with Pseudomonas aeruginosa [6] and 0.5 µg/mL (≈ 1.02 µM) with Pseudomonas aeruginosa [2]. Further, the IC50 is 5 nM in assay [3] and 3 nM in assay [5].
Consider `CC(C)(O)[C@H](N[C@H]1CCc2cc(C#Cc3ccc(CN4CCN(CCO)CC4)cc3)ccc21)C(=O)NO`, for which the MIC came to 4 µg/mL (≈ 7.9 µM) in the assay with Pseudomonas aeruginosa [1], 4 µg/mL (≈ 7.9 µM) with Escherichia coli, 32 µg/mL (≈ 63.2 µM) in the assay on Pseudomonas aeruginosa [6] and 0.5 µg/mL (≈ 0.987 µM) against Pseudomonas aeruginosa [2]. Moreover, the IC50 in assay [3] was 14 nM; in assay [5], 41 nM.

Broadly, the MIC is the lowest concentration found to suppress growth. A low value points to greater potency. The IC50 is the concentration at which inhibition is half-maximal. A lower IC50 goes with inhibition by little substance.

For the origin of these results see ChEMBL document CHEMBL4049409, “Structure-based discovery of LpxC inhibitors” (Bioorg Med Chem Lett, 2017).
